Data from PubChem BioAssay (NCI).
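In this assay, cells in 96-well plates receive the compound at five concentrations for 48 hours. Endpoints are linearly interpolated between the surrounding concentrations. GI50: concentration for 50% inhibition of growth. The concentration for full growth arrest is given as TGI.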

Legend:
Assay in all cases: NCI-60 cell line screen, 48 h
UACC-257 melanoma = tested on: UACC-257 melanoma
MDA-MB-231 breast = tested on: MDA-MB-231 breast
K-562 leukemia = tested on: K-562 leukemia
MOLT-4 leukemia = tested on: MOLT-4 leukemia
PC-3 prostate = tested on: PC-3 prostate
CCRF-CEM leukemia = tested on: CCRF-CEM leukemia
HOP-62 NSCLC = tested on: HOP-62 NSCLC
SK-MEL-28 melanoma = tested on: SK-MEL-28 melanoma
786-0 renal = tested on: 786-0 renal
SW-620 colon = tested on: SW-620 colon
SF-295 CNS = tested on: SF-295 CNS
SNB-19 CNS = tested on: SNB-19 CNS
CAKI-1 renal = tested on: CAKI-1 renal
EKVX NSCLC = tested on: EKVX NSCLC
NCI-H23 lung = tested on: NCI-H23 lung
UO-31 renal = tested on: UO-31 renal
HT29 colon = tested on: HT29 colon
HOP-92 NSCLC = tested on: HOP-92 NSCLC
U251 CNS = tested on: U251 CNS
DU-145 prostate = tested on: DU-145 prostate
HS 578T breast = tested on: HS 578T breast
NCI-H226 lung = tested on: NCI-H226 lung
ACHN renal = tested on: ACHN renal
NCI-H522 lung = tested on: NCI-H522 lung
IGROV1 ovarian = tested on: IGROV1 ovarian
COLO 205 colon = tested on: COLO 205 colon
HCT-116 colon = tested on: HCT-116 colon
MCF7 breast = tested on: MCF7 breast
HCT-15 colon = tested on: HCT-15 colon
HCC-2998 colon = tested on: HCC-2998 colon
TK-10 renal = tested on: TK-10 renal
A549 NSCLC = tested on: A549 NSCLC
T-47D breast = tested on: T-47D breast
LOX IMVI melanoma = tested on: LOX IMVI melanoma
SK-MEL-2 melanoma = tested on: SK-MEL-2 melanoma
HL-60(TB) leukemia = tested on: HL-60(TB) leukemia
MDA-MB-435 = tested on: MDA-MB-435
A498 renal = tested on: A498 renal
OVCAR-4 ovarian = tested on: OVCAR-4 ovarian
KM12 colon = tested on: KM12 colon
NCI-H460 lung = tested on: NCI-H460 lung
MALME-3M melanoma = tested on: MALME-3M melanoma
M14 melanoma = tested on: M14 melanoma
RPMI-8226 leukemia = tested on: RPMI-8226 leukemia
SNB-75 CNS = tested on: SNB-75 CNS
SF-539 CNS = tested on: SF-539 CNS
OVCAR-8 ovarian = tested on: OVCAR-8 ovarian
BT-549 breast = tested on: BT-549 breast
OVCAR-3 ovarian = tested on: OVCAR-3 ovarian
SK-OV-3 ovarian = tested on: SK-OV-3 ovarian
SR leukemia = tested on: SR leukemia
SK-MEL-5 melanoma = tested on: SK-MEL-5 melanoma
NCI/ADR-RES ovarian = tested on: NCI/ADR-RES ovarian
RXF 393 renal = tested on: RXF 393 renal
SF-268 CNS = tested on: SF-268 CNS
OVCAR-5 ovarian = tested on: OVCAR-5 ovarian

COC(=O)[C@]12CC[C@@H](C)[C@H](C)[C@@H]1C1=CC[C@@H]3[C@@]4(C)C[C@@H](OC(C)=O)[C@H](O)[C@@](C)(CO)[C@@H]4[C@H](O)C[C@@]3(C)[C@]1(C)CC2
GI50 (UACC-257 melanoma): 13.4 µM
TGI (UACC-257 melanoma): 28.1 µM
GI50 (MDA-MB-231 breast): 8.95 µM
TGI (MDA-MB-231 breast): 23.4 µM
GI50 (K-562 leukemia): 9.18 µM
TGI (K-562 leukemia): 27.4 µM
GI50 (MOLT-4 leukemia): 5.82 µM
TGI (MOLT-4 leukemia): 22 µM
GI50 (PC-3 prostate): 7.53 µM
TGI (PC-3 prostate): 20.5 µM
GI50 (CCRF-CEM leukemia): 12.8 µM
TGI (CCRF-CEM leukemia): 36.5 µM
GI50 (HOP-62 NSCLC): 14.7 µM
TGI (HOP-62 NSCLC): 29.5 µM
GI50 (SK-MEL-28 melanoma): 13 µM
TGI (SK-MEL-28 melanoma): 28.6 µM
GI50 (786-0 renal): 14.5 µM
TGI (786-0 renal): 29.8 µM
GI50 (SW-620 colon): 16 µM
TGI (SW-620 colon): 35.6 µM
GI50 (SF-295 CNS): 11.6 µM
TGI (SF-295 CNS): 25.1 µM
GI50 (SNB-19 CNS): 14.3 µM
TGI (SNB-19 CNS): 31.3 µM
GI50 (CAKI-1 renal): 10.1 µM
TGI (CAKI-1 renal): 21.9 µM
GI50 (EKVX NSCLC): 10.5 µM
TGI (EKVX NSCLC): 24.6 µM
GI50 (NCI-H23 lung): 13.6 µM
TGI (NCI-H23 lung): 30 µM
GI50 (UO-31 renal): 3.58 µM
TGI (UO-31 renal): 17.1 µM
GI50 (HT29 colon): 5.79 µM
TGI (HT29 colon): 20.4 µM
GI50 (HOP-92 NSCLC): 11.3 µM
TGI (HOP-92 NSCLC): 24.3 µM
GI50 (U251 CNS): 10.7 µM
TGI (U251 CNS): 23.9 µM
GI50 (DU-145 prostate): 13 µM
TGI (DU-145 prostate): 26.4 µM
GI50 (HS 578T breast): 11.9 µM
TGI (HS 578T breast): 29.6 µM
GI50 (NCI-H226 lung): 16.3 µM
TGI (NCI-H226 lung): 38.2 µM
GI50 (ACHN renal): 10.4 µM
TGI (ACHN renal): 24.5 µM
GI50 (NCI-H522 lung): 11.2 µM
TGI (NCI-H522 lung): 26.2 µM
GI50 (IGROV1 ovarian): 8.87 µM
TGI (IGROV1 ovarian): 24.8 µM
GI50 (COLO 205 colon): 11.6 µM
TGI (COLO 205 colon): 25.9 µM
GI50 (HCT-116 colon): 11.8 µM
TGI (HCT-116 colon): 25.4 µM
GI50 (MCF7 breast): 4.95 µM
TGI (MCF7 breast): 20.9 µM
GI50 (HCT-15 colon): 7.74 µM
TGI (HCT-15 colon): 22.9 µM
GI50 (HCC-2998 colon): 12 µM
TGI (HCC-2998 colon): 26.7 µM
GI50 (TK-10 renal): 15 µM
TGI (TK-10 renal): 29 µM
GI50 (A549 NSCLC): 6.39 µM
TGI (A549 NSCLC): 20.8 µM
GI50 (T-47D breast): 12.4 µM
TGI (T-47D breast): 28.7 µM
GI50 (LOX IMVI melanoma): 10.4 µM
TGI (LOX IMVI melanoma): 23.6 µM
GI50 (SK-MEL-2 melanoma): 17.7 µM
TGI (SK-MEL-2 melanoma): 34.1 µM
GI50 (HL-60(TB) leukemia): 13.9 µM
TGI (HL-60(TB) leukemia): 31.6 µM
GI50 (MDA-MB-435): 12.6 µM
TGI (MDA-MB-435): 26 µM
GI50 (A498 renal): 11.9 µM
TGI (A498 renal): 24.7 µM
GI50 (OVCAR-4 ovarian): 12 µM
TGI (OVCAR-4 ovarian): 27 µM
GI50 (KM12 colon): 9.95 µM
TGI (KM12 colon): 26.7 µM
GI50 (NCI-H460 lung): 10.6 µM
TGI (NCI-H460 lung): 26.3 µM
GI50 (MALME-3M melanoma): 17.2 µM
TGI (MALME-3M melanoma): 33 µM
GI50 (M14 melanoma): 8.14 µM
TGI (M14 melanoma): 22.2 µM
GI50 (RPMI-8226 leukemia): 7.86 µM
TGI (RPMI-8226 leukemia): 31.7 µM
GI50 (SNB-75 CNS): 10.2 µM
TGI (SNB-75 CNS): 23.1 µM
GI50 (SF-539 CNS): 14.8 µM
TGI (SF-539 CNS): 29.4 µM
GI50 (OVCAR-8 ovarian): 12.2 µM
TGI (OVCAR-8 ovarian): 30.4 µM
GI50 (BT-549 breast): 15 µM
TGI (BT-549 breast): 29.8 µM
GI50 (OVCAR-3 ovarian): 13.4 µM
TGI (OVCAR-3 ovarian): 29.9 µM
GI50 (SK-OV-3 ovarian): 16.6 µM
TGI (SK-OV-3 ovarian): 30.7 µM
GI50 (SR leukemia): 7.62 µM
TGI (SR leukemia): 25.5 µM
GI50 (SK-MEL-5 melanoma): 12.9 µM
TGI (SK-MEL-5 melanoma): 26 µM
GI50 (NCI/ADR-RES ovarian): 13.2 µM
TGI (NCI/ADR-RES ovarian): 29.5 µM
GI50 (RXF 393 renal): 11 µM
TGI (RXF 393 renal): 26.4 µM
GI50 (SF-268 CNS): 10.8 µM
TGI (SF-268 CNS): 28.2 µM
GI50 (OVCAR-5 ovarian): 13.2 µM
TGI (OVCAR-5 ovarian): 27.7 µM
